Measured values as given in the supplement of paper PMC10307832.

What was measured:
Assay in all cases: relative viability (nuclei count vs DMSO), 5 days (fraction); higher = more cells survive
NCI-H1395 = system: NCI-H1395
Procedure, shortened: (§1)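 One day after seeding in 1536-well plates, lung cancer cell lines were dosed by pin tool. Dosing was either single-drug or a fixed anchor-drug dose plus five library-drug doses (not always all listed) in √10 steps. After 5 days, nuclei were stained in one fix-and-stain step and counted on 4× images, and relative viability is the nuclei count of treated wells over that of vehicle wells, given as the median of duplicate plates.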

NCI-H1651 = system: NCI-H1651
Procedure, shortened: as §1

NCI-H3122 = system: NCI-H3122
Procedure, shortened: as §1

NCI-H2228 = system: NCI-H2228
Procedure, shortened: as §1

NCI-H2087 = system: NCI-H2087
Procedure, shortened: as §1

PC-3 [JPC-3] = system: PC-3 [JPC-3]
Procedure, shortened: as §1

LU99A = system: LU99A
Procedure, shortened: as §1

HCC-366 = system: HCC-366
Procedure, shortened: as §1

CAL-12T = system: CAL-12T
Procedure, shortened: as §1

RERF-LC-KJ = system: RERF-LC-KJ
Procedure, shortened: as §1

NCI-H460 = system: NCI-H460
Procedure, shortened: as §1

NCI-H1755 = system: NCI-H1755
Procedure, shortened: as §1

NCI-H1944 = system: NCI-H1944
Procedure, shortened: as §1

ChaGo-K-1 = system: ChaGo-K-1
Procedure, shortened: as §1

NCI-H2170 = system: NCI-H2170
Procedure, shortened: as §1

NCI-H2405 = system: NCI-H2405
Procedure, shortened: as §1

LC-2-ad = system: LC-2-ad
Procedure, shortened: as §1

NCI-H1793 = system: NCI-H1793
Procedure, shortened: as §1

HCC-78 = system: HCC-78
Procedure, shortened: as §1

UMC-11 = system: UMC-11
Procedure, shortened: as §1

LOU-NH91 = system: LOU-NH91
Procedure, shortened: as §1

O=c1cc(N2CCOCC2)oc2c(-c3cccc4c3sc3ccccc34)cccc12 + Nc1nc2[nH]cc(CCc3ccc(C(=O)N[C@@H](CCC(=O)O)C(=O)O)cc3)c2c(=O)[nH]1 [Pemetrexed] (partner 0.2 µM)
relative viability (NCI-H1395; first compound 0.03162 µM): 0.908
relative viability (NCI-H1395; first compound 0.1 µM): 0.909
relative viability (NCI-H1395; first compound 0.3162 µM): 1.01
relative viability (NCI-H1395; first compound 1 µM): 0.855
relative viability (NCI-H1651; first compound 0.01 µM): 0.547
relative viability (NCI-H1651; first compound 0.03162 µM): 0.564
relative viability (NCI-H1651; first compound 0.1 µM): 0.569
relative viability (NCI-H1651; first compound 0.3162 µM): 0.552
relative viability (NCI-H1651; first compound 1 µM): 0.578
relative viability (NCI-H3122; first compound 0.01 µM): 0.207
relative viability (NCI-H3122; first compound 0.03162 µM): 0.206
relative viability (NCI-H3122; first compound 0.1 µM): 0.197
relative viability (NCI-H3122; first compound 0.3162 µM): 0.21
relative viability (NCI-H3122; first compound 1 µM): 0.205
relative viability (NCI-H2228; first compound 0.01 µM): 0.342
relative viability (NCI-H2228; first compound 0.03162 µM): 0.356
relative viability (NCI-H2228; first compound 0.1 µM): 0.396
relative viability (NCI-H2228; first compound 0.3162 µM): 0.356
relative viability (NCI-H2228; first compound 1 µM): 0.355
relative viability (NCI-H2087; first compound 0.01 µM): 0.665
relative viability (NCI-H2087; first compound 0.03162 µM): 0.633
relative viability (NCI-H2087; first compound 0.1 µM): 0.693
relative viability (NCI-H2087; first compound 0.3162 µM): 0.662
relative viability (NCI-H2087; first compound 1 µM): 0.651
relative viability (PC-3 [JPC-3]; first compound 0.01 µM): 1.09
relative viability (PC-3 [JPC-3]; first compound 0.03162 µM): 1.14
relative viability (PC-3 [JPC-3]; first compound 0.1 µM): 1.05
relative viability (PC-3 [JPC-3]; first compound 0.3162 µM): 1.1
relative viability (PC-3 [JPC-3]; first compound 1 µM): 1.1
relative viability (LU99A; first compound 0.01 µM): 0.177
relative viability (LU99A; first compound 0.03162 µM): 0.195
relative viability (LU99A; first compound 0.1 µM): 0.139
relative viability (LU99A; first compound 0.3162 µM): 0.19
relative viability (LU99A; first compound 1 µM): 0.176
relative viability (HCC-366; first compound 0.01 µM): 0.159
relative viability (HCC-366; first compound 0.03162 µM): 0.181
relative viability (HCC-366; first compound 0.1 µM): 0.149
relative viability (HCC-366; first compound 0.3162 µM): 0.144
relative viability (HCC-366; first compound 1 µM): 0.186
relative viability (CAL-12T; first compound 0.01 µM): 1.15
relative viability (CAL-12T; first compound 0.03162 µM): 1.16
relative viability (CAL-12T; first compound 0.1 µM): 1.29
relative viability (CAL-12T; first compound 0.3162 µM): 1.13
relative viability (CAL-12T; first compound 1 µM): 1.09
relative viability (RERF-LC-KJ; first compound 0.01 µM): 0.474
relative viability (RERF-LC-KJ; first compound 0.03162 µM): 0.478
relative viability (RERF-LC-KJ; first compound 0.1 µM): 0.492
relative viability (RERF-LC-KJ; first compound 0.3162 µM): 0.489
relative viability (RERF-LC-KJ; first compound 1 µM): 0.423
relative viability (NCI-H460; first compound 0.01 µM): 0.0597
relative viability (NCI-H460; first compound 0.03162 µM): 0.0598
relative viability (NCI-H460; first compound 0.1 µM): 0.0653
relative viability (NCI-H460; first compound 0.3162 µM): 0.0653
relative viability (NCI-H460; first compound 1 µM): 0.0594
relative viability (NCI-H1755; first compound 0.01 µM): 0.476
relative viability (NCI-H1755; first compound 0.03162 µM): 0.441
relative viability (NCI-H1755; first compound 0.1 µM): 0.425
relative viability (NCI-H1755; first compound 0.3162 µM): 0.414
relative viability (NCI-H1755; first compound 1 µM): 0.445
relative viability (NCI-H1944; first compound 0.01 µM): 0.691
relative viability (NCI-H1944; first compound 0.03162 µM): 0.674
relative viability (NCI-H1944; first compound 0.1 µM): 0.624
relative viability (NCI-H1944; first compound 0.3162 µM): 0.589
relative viability (NCI-H1944; first compound 1 µM): 0.635
relative viability (ChaGo-K-1; first compound 0.01 µM): 0.267
relative viability (ChaGo-K-1; first compound 0.03162 µM): 0.249
relative viability (ChaGo-K-1; first compound 0.1 µM): 0.247
relative viability (ChaGo-K-1; first compound 0.3162 µM): 0.259
relative viability (ChaGo-K-1; first compound 1 µM): 0.286
relative viability (NCI-H2170; first compound 0.01 µM): 0.253
relative viability (NCI-H2170; first compound 0.03162 µM): 0.251
relative viability (NCI-H2170; first compound 0.1 µM): 0.263
relative viability (NCI-H2170; first compound 0.3162 µM): 0.267
relative viability (NCI-H2170; first compound 1 µM): 0.255
relative viability (NCI-H2405; first compound 0.01 µM): 1.02
relative viability (NCI-H2405; first compound 0.03162 µM): 1.18
relative viability (NCI-H2405; first compound 0.1 µM): 0.943
relative viability (NCI-H2405; first compound 0.3162 µM): 1.11
relative viability (NCI-H2405; first compound 1 µM): 1.09
relative viability (LC-2-ad; first compound 0.01 µM): 0.267
relative viability (LC-2-ad; first compound 0.03162 µM): 0.284
relative viability (LC-2-ad; first compound 0.1 µM): 0.282
relative viability (LC-2-ad; first compound 0.3162 µM): 0.279
relative viability (LC-2-ad; first compound 1 µM): 0.304
relative viability (NCI-H1793; first compound 0.01 µM): 0.776
relative viability (NCI-H1793; first compound 0.03162 µM): 0.728
relative viability (NCI-H1793; first compound 0.1 µM): 1.01
relative viability (NCI-H1793; first compound 0.3162 µM): 0.961
relative viability (NCI-H1793; first compound 1 µM): 0.74
relative viability (HCC-78; first compound 0.01 µM): 0.897
relative viability (HCC-78; first compound 0.03162 µM): 0.886
relative viability (HCC-78; first compound 0.1 µM): 0.933
relative viability (HCC-78; first compound 0.3162 µM): 0.877
relative viability (HCC-78; first compound 1 µM): 0.979
relative viability (UMC-11; first compound 0.01 µM): 0.738
relative viability (UMC-11; first compound 0.03162 µM): 0.66
relative viability (UMC-11; first compound 0.1 µM): 0.868
relative viability (UMC-11; first compound 0.3162 µM): 0.805
relative viability (UMC-11; first compound 1 µM): 0.789
relative viability (LOU-NH91; first compound 0.01 µM): 0.39
relative viability (LOU-NH91; first compound 0.03162 µM): 0.384
relative viability (LOU-NH91; first compound 0.1 µM): 0.377
relative viability (LOU-NH91; first compound 0.3162 µM): 0.386
relative viability (LOU-NH91; first compound 1 µM): 0.425
